From patent US4226863A, “7-Methoxy cephalosporins” (Sumitomo Chemical Company, Limited, priority 1975, dated 1980)
Converted amounts (≈) assume the structure as drawn.

How the values were obtained:
Format in all cases: cell-based
Serratia No. 115 = assay: antimicrobial activity, minimum inhibitory concentration, Serratia No. 115
Experimental: (§1) The antimicrobial activities of the compounds prepared in the previous Examples were determined in a usual manner and the minimum inhibitory concentrations (in terms of μg/ml) are set forth in the Table below.

[1] = system: Enterobacter aerogenes No. 101; assay: antimicrobial activity, minimum inhibitory concentration, Enterobacter aerogenes No. 101; details: Klebsiella aerogenes
Experimental: as §1

[2] = system: Pseudomonas aeruginosa IID 5142; assay: antimicrobial activity, minimum inhibitory concentration, Pseudomonas aeruginosa IID 5142; details: IID5142
Experimental: as §1

Escherichia coli NIHJ = assay: antimicrobial activity, minimum inhibitory concentration, Escherichia coli NIHJ
Proteus vulgaris HX 19 = assay: antimicrobial activity, minimum inhibitory concentration, Proteus vulgaris HX 19; details: HX19
Experimental: as §1

| MIC (Serratia No. 115) | MIC [1] | MIC [2] | MIC (Escherichia coli NIHJ) | MIC (Proteus vulgaris HX 19) | Compound |
| --- | --- | --- | --- | --- | --- |
| 25 µg/mL (≈ 35.9 µM) | 6.25 µg/mL (≈ 8.98 µM) | 3.13 µg/mL (≈ 4.5 µM) | 3.13 µg/mL (≈ 4.5 µM) | 0.39 µg/mL (≈ 0.561 µM) | COC1(NC(=O)C(NC(=O)c2cnc3cccnc3c2O)c2cccc(O)c2)C(=O)N2C(C(=O)O)=C(CSc3nnc(C)s3)CSC21 (stereo not drawn) [Example 31] |
| 25 µg/mL (≈ 36.7 µM) | 6.25 µg/mL (≈ 9.17 µM) | 3.13 µg/mL (≈ 4.59 µM) | 3.13 µg/mL (≈ 4.59 µM) | 0.39 µg/mL (≈ 0.572 µM) | COC1(NC(=O)C(NC(=O)c2cnc3cccnc3c2O)C2=CCC=CC2)C(=O)N2C(C(=O)O)=C(CSc3nnc(C)s3)CSC21 (stereo not drawn) [Example 32] |
| 100 µg/mL (≈ 179 µM) | 50 µg/mL (≈ 89.4 µM) | 12.5 µg/mL (≈ 22.3 µM) | 12.5 µg/mL (≈ 22.3 µM) | 0.39 µg/mL (≈ 0.697 µM) | COC1(NC(=O)C(NC(=O)c2cnccc2O)C2=CCC=CC2)C(=O)N2C(C(=O)O)=C(COC(N)=O)CSC21 (stereo not drawn) [Example 33] |
| 50 µg/mL (≈ 80.8 µM) | 12.5 µg/mL (≈ 20.2 µM) | 6.25 µg/mL (≈ 10.1 µM) | 12.5 µg/mL (≈ 20.2 µM) | 0.39 µg/mL (≈ 0.63 µM) | COC1(NC(=O)C(NC(=O)c2cnccc2O)c2cccs2)C(=O)N2C(C(=O)O)=C(CSc3nnnn3C)CSC21 (stereo not drawn) [Example 34] |
| 6.25 µg/mL (≈ 9.56 µM) | 3.13 µg/mL (≈ 4.79 µM) | 3.13 µg/mL (≈ 4.79 µM) | 1.56 µg/mL (≈ 2.39 µM) | 0.39 µg/mL (≈ 0.597 µM) | COC1(NC(=O)C(NC(=O)c2cnc3cccnc3c2O)c2ccco2)C(=O)N2C(C(=O)O)=C(CSc3nnnn3C)CSC21 (stereo not drawn) [Example 35] |
| 50 µg/mL (≈ 81.7 µM) | 12.5 µg/mL (≈ 20.4 µM) | 3.13 µg/mL (≈ 5.12 µM) | 3.13 µg/mL (≈ 5.12 µM) | 0.39 µg/mL (≈ 0.638 µM) | COC1(NC(=O)C(NC(=O)c2cnc3cccnc3c2O)C2=CCCCC2)C(=O)N2C(C(=O)O)=C(COC(C)=O)CSC21 (stereo not drawn) [Example 36] |
| 50 µg/mL (≈ 72.8 µM) | 6.25 µg/mL (≈ 9.1 µM) | 12.5 µg/mL (≈ 18.2 µM) | 6.25 µg/mL (≈ 9.1 µM) | 0.78 µg/mL (≈ 1.14 µM) | COC1(NC(=O)C(NC(=O)c2cnc3cncnc3c2O)c2ccc(O)cc2)C(=O)N2C(C(=O)[O-])=C(C[n+]3ccc(C(N)=O)cc3)CSC21 (stereo not drawn) [Example 37] |
| 25 µg/mL (≈ 36.8 µM) | 12.5 µg/mL (≈ 18.4 µM) | 12.5 µg/mL (≈ 18.4 µM) | 12.5 µg/mL (≈ 18.4 µM) | 0.78 µg/mL (≈ 1.15 µM) | COC1(NC(=O)C(NC(=O)c2cnc3ccncc3c2O)c2ccc(O)cc2)C(=O)N2C(C(=O)O)=C(CSc3nnnn3C)CSC21 (stereo not drawn) [Example 38] |
| 50 µg/mL (≈ 76.4 µM) | 12.5 µg/mL (≈ 19.1 µM) | 3.13 µg/mL (≈ 4.78 µM) | 3.13 µg/mL (≈ 4.78 µM) | 0.78 µg/mL (≈ 1.19 µM) | COc1cc(C(NC(=O)c2cnc3cccnc3c2O)C(=O)NC2(OC)C(=O)N3C(C(=O)O)=C(COC(N)=O)CSC32)ccc1O (stereo not drawn) [Example 39] |
| 12.5 µg/mL (≈ 16.3 µM) | 6.25 µg/mL (≈ 8.17 µM) | 3.13 µg/mL (≈ 4.09 µM) | 6.25 µg/mL (≈ 8.17 µM) | 0.78 µg/mL (≈ 1.02 µM) | COC1(NC(=O)C(NC(=O)c2cnc3cccnc3c2O)c2cc(Cl)c(O)c(Cl)c2)C(=O)N2C(C(=O)O)=C(CSc3nnc(C)s3)CSC21 (stereo not drawn) [Example 40] |
| 50 µg/mL (≈ 77.3 µM) | 12.5 µg/mL (≈ 19.3 µM) | 6.25 µg/mL (≈ 9.67 µM) | 12.5 µg/mL (≈ 19.3 µM) | 0.39 µg/mL (≈ 0.603 µM) | COC1(NC(=O)C(NC(=O)c2cnccc2O)c2ccc(O)c(F)c2)C(=O)N2C(C(=O)O)=C(CSc3nnnn3C)CSC21 (stereo not drawn) [Example 41] |
| 50 µg/mL (≈ 75.7 µM) | 25 µg/mL (≈ 37.8 µM) | 12.5 µg/mL (≈ 18.9 µM) | 12.5 µg/mL (≈ 18.9 µM) | 0.78 µg/mL (≈ 1.18 µM) | COC1(NC(=O)C(NC(=O)c2cnccc2O)c2cccc(O)c2)C(=O)N2C(C(=O)O)=C(CSc3nnc(CO)s3)CSC21 (stereo not drawn) [Example 42] |
| 50 µg/mL (≈ 67.3 µM) | 25 µg/mL (≈ 33.7 µM) | 12.5 µg/mL (≈ 16.8 µM) | 12.5 µg/mL (≈ 16.8 µM) | 1.56 µg/mL (≈ 2.1 µM) | COc1nc(OC)c2c(O)c(C(=O)NC(C(=O)NC3(OC)C(=O)N4C(C(=O)O)=C(CSc5nncs5)CSC43)c3ccc(O)cc3)cnc2n1 (stereo not drawn) [Example 43] |
| 100 µg/mL (≈ 170 µM) | 50 µg/mL (≈ 84.8 µM) | 12.5 µg/mL (≈ 21.2 µM) | 12.5 µg/mL (≈ 21.2 µM) | 0.78 µg/mL (≈ 1.32 µM) | COC1(NC(=O)C(NC(=O)c2cnccc2O)c2ccc(O)c(O)c2)C(=O)N2C(C(=O)O)=C(COC(N)=O)CSC21 (stereo not drawn) [Example 44] |
| 12.5 µg/mL (≈ 17.6 µM) | 12.5 µg/mL (≈ 17.6 µM) | 6.25 µg/mL (≈ 8.78 µM) | 3.13 µg/mL (≈ 4.4 µM) | 0.78 µg/mL (≈ 1.1 µM) | COC1(NC(=O)C(NC(=O)c2cnc3cccnc3c2O)c2ccc(O)c(O)c2)C(=O)N2C(C(=O)O)=C(CSc3nnc(C)s3)CSC21 (stereo not drawn) [Example 45] |
| 6.25 µg/mL (≈ 9.35 µM) | 6.25 µg/mL (≈ 9.35 µM) | 6.25 µg/mL (≈ 9.35 µM) | 1.56 µg/mL (≈ 2.33 µM) | 0.39 µg/mL (≈ 0.583 µM) | COC1(NC(=O)C(NC(=O)c2cnc3cn[nH]c3c2O)c2ccc(O)cc2)C(=O)N2C(C(=O)O)=C(CSc3nnnn3C)CSC21 (stereo not drawn) [Example 46] |
| 12.5 µg/mL (≈ 17.4 µM) | 6.25 µg/mL (≈ 8.72 µM) | 6.25 µg/mL (≈ 8.72 µM) | 3.13 µg/mL (≈ 4.37 µM) | 0.39 µg/mL (≈ 0.544 µM) | COC1(NC(=O)C(NC(=O)c2cnc3cccnc3c2O)c2ccc(O)cc2)C(=O)N2C(C(=O)O)=C(CSc3ccc4nnnn4n3)CSC21 (stereo not drawn) [Example 47] |
| 25 µg/mL (≈ 40.7 µM) | 6.25 µg/mL (≈ 10.2 µM) | 3.13 µg/mL (≈ 5.09 µM) | 3.13 µg/mL (≈ 5.09 µM) | 0.39 µg/mL (≈ 0.635 µM) | COC1(NC(=O)C(NC(=O)c2cnc3cccnc3c2O)c2cccs2)C(=O)N2C(C(=O)O)=C(COC(N)=O)CSC21 (stereo not drawn) [Example 48] |
